Values of other authors as cited in paper PMC11125331, “Pharmaceutical Compounding in Veterinary Medicine: Suspension of Itraconazole” (Pharmaceutics, 2024).
Like-named read-outs stand apart in the source and are kept apart here. One block for each compound: values may come before it.

Tests used:
[1] = parameters: method as in PMID 28627123
[2] = test system: dogs; parameters: method as in earlier work
[3] = test system: cats; parameters: method as in PMID 35245984, PMID 34109637; conditions: punctual administrations
[4] = test system: dogs; parameters: method as in PMID 35245984, PMID 34109637; conditions: orally at 10 mg/kg

Concentration in skin and hair relative to plasma levels [1]: ten times higher than plasma levels | Biopharmaceutical Classification System class: class II | log P (n-octanol/water) (at pH 8.1): 5.66 | Solubility (in 0.1 M chlorhydric acid (HCl)): 4 to 6 µg/mL | Solubility (in water): 0.001 to 0.004 µg/mL
Compound: CCC(C)n1ncn(-c2ccc(N3CCN(c4ccc(OCC5COC(Cn6cncn6)(c6ccc(Cl)cc6Cl)O5)cc4)CC3)cc2)c1=O (centres unmarked) [Itraconazole]

Compound: OC[C@@H](O)[C@H](O)[C@@H](O)CO [xylitol]
Adverse effects [2]: can cause severe hypoglycemia

Compound: polysorbate 80
Safety [3]: safe | Adverse effects [4]: produces cardiovascular changes and hypersensitivity effects
